These are literature values, as cited in patent US12091391B2, “Reagents and methods for bioorthogonal labeling of biomolecules in living cells” (Oregon State University, priority 2015, dated 2024).

Take “cyclopropane-fused trans cyclooctene [sTCO]”: the half-life in vivo is 16.1 h.
